Results taken from patent US8946247B2, “Quinazoline carboxamide azetidines” (Merck Patent GmbH, priority 2010, dated 2015).
pIC50: −log10 of the molar value.

Columns and labels:
P70S6K (T412E mutant) = biological target: T1, P70S6K (T412E mutant) (Homo sapiens, UniProt P23443, T412E); test: p70S6K Enzyme Assay; type: biochemical; settings: 24 μM ATP, 90 min at 25° C., Caliper mobility shift
T1 construct: purchased Millipore
Method: p70S6K inhibitor compounds were diluted and plated in 96 well plates. A reaction mixture including the following components were then added to the compound plate to initiate the enzyme reaction; P70S6K (3 nM, T412E mutant, Millipore) was mixed with 24 μM ATP in an assay buffer containing 100 mM Hepes (pH 7.5), 5 mM MgCl2, 1 mM DTT, 0.015% Brij and 1 μM of the substrate peptide FITC-AHA-AKRRRLSSLRA-OH (derived from the S6 ribosomal protein sequence, FITC=fluorescein isothiocyanate, AHA=6-aminohexanoic acid). The reaction was incubated for 90 min at 25° C., before the addition of 10 mM EDTA to stop the reaction. The proportion of substrate and product (phosphorylated) peptide was analysed on a Caliper Life Sciences Lab Chip 3000, using a pressure of −1.4 psi, and upstream and downstream voltages of −3000 and −700 respectively. Product peaks were resolved before substrate peaks on the resulting chromatograms.
To assess the inhibitory potential of the compounds, IC50-values were determined, as shown in Chemical Synthesis section above.

pS6 MDA-MB-468 = test: Cellular Activity Assay (phospho-S6 in MDA-MB-468 cells); type: cell-based; settings: Homo sapiens, 2 hr compound incubation, percent pS6-positive cells
Method: MDA-MB-468 cells were grown in DMEM containing glutamine supplemented with 10% Fetal Bovine Serum (FBS) and 1× antibiotics. Cells were maintained by splitting 1:3 twice a week.
For the assay, cells were plated the evening before at a density of 4000 cells per well in black polyD lysine coated 384 well plates. Cells were incubated overnight (16 to 20 hours) in growth media. Compounds at an appropriate concentration were added to the wells and incubated for 2 hr. Controls included: i) no primary, ii) rabbit isotype, iii) propidium iodide (red) only and iv) anti-phospho-S6 antibody alone (green only). Cells were then fixed in 4% paraformaldehyde for 15-20 minutes at room temperature, then washed 3×80 ul with PBS.
50 ul 10% normal goat serum (NGS) with 0.2% triton X 100 in PBS were added and incubated for 30 to 60 minutes at room temperature. Anti-phospho-S6 antibody was diluted 1:800 2% with NGS in 0.2% TritonX-100 and 30 ul added to appropriate wells. The wells were incubated overnight at 4 degrees Celsius.
Then the wells were washed with 3×80 uL PBS. The secondary green fluorescence labeled antibody (Alexa Fluor® 488 F(ab′)2 fragment goat Anti-rabbit IgG (H+L)), was diluted 1:1500 in 2% NGS with 0.2% TritonX-100, and 30 ul were added to the appropriate wells which were then incubated in the dark at room temperature for 60 minutes. Then they were washed with 4×80 ul PBS. Propidium iodide (1.5 mM stock) was diluted 1:1000 in PBS, and 50 ul were added to the appropriate wells and incubated for 30 minutes at room temperature in the dark. Propidium iodide was not washed out. Plates were read on the Acumen Explorer.
Red and green cell populations were determined using controls. The number of green cells (pS6) and total number of cells (red) were then counted and the percentage of green cells was calculated. Percent positive cell data was plotted on a log scale against concentration of compounds and IC50 values were calculated from dose response curves.

Aurora B = biological target: T2, Aurora B (Homo sapiens, UniProt Q96GD4); test: Aurora B Kinase Assay; type: biochemical; settings: for pIC50: GST-Aurora B (1-344), 10 uM ATP, 90 min at 25 C
T2 construct: GST-Aurora B (1-344 amino acids); GST (N); purchased Carna Biosciences 05-102
Method: To measure inhibitor activity of Aurora B inhibitors in the Caliper Life Sciences LC3000, a TTP Mosquito liquid handling instrument was used to place 0.25 ul of the appropriate concentration of inhibitor in 100% DMSO (for a dose response curve calculation) into each well of a 384-well plate. To this reaction components was added to a final volume of 25 ul: • 0.1 ng/ul GST-Aurora B (1-344 amino acids), (Carna Biosciences 05-102. N-terminal GST fusion with His tagged INCEP, accession number Q96GD4). • 10 uM ATP (Fluka, 02055) • 1 mM DTT (Sigma, D0632) • 1 mM MgCl2 (Sigma, M1028) • 1 uM substrate peptide (sequence FITC-LRRASLG-(CONH2), synthesized by Tufts Peptide Synthesis service. • 100 mM HEPES pH 7.5 (Calbiochem, 391338) • 0.015% Brij-35 (Sigma, B4184)
(§1) The reaction was incubated for 90 min at 25 C, and then stopped by the addition of 70 ul of Stop buffer (100 mM HEPES pH 7.5, 0.015% Brij-35, 10 mM EDTA (Sigma, E7889)).
The plate was read on a Caliper LC 3000 in an Off-Chip mobility shift assay format, using the following parameters for a 12-sipper chip: screening pressure −1.8 psi, upstream voltage −2700, downstream voltage −1000. These conditions caused unphosphorylated substrate and phosphorylated product peptide to resolve as separate peaks allowing direct measurement of percentage of conversion of substrate to product. The percent conversion was plotted against concentration of inhibitor to produce a sigmoidal dose response curve, from which an IC50 was calculated using XLFit for Microsoft Excel.

Akt1 = biological target: T3, Akt1 (Homo sapiens, UniProt P31749); test: AKT/PKB Kinase Assay; type: biochemical; settings: His-AKT (Full Length), 160 uM ATP, 90 min at 25 C
T3 construct: 0.1 ng/ul His-AKT (Full Length), (Invitrogen, Part #P2999, Lot #641228C); His; purchased Invitrogen P2999
Method: In order to measure AKT inhibition in the Caliper Life Sciences LC3000, a TTP Mosquito liquid handling instrument was used to place 125 nl of the appropriate concentration of inhibitor in 100% DMSO (for a dose response curve calculation) into each well of a 384-well plate. To this reaction components were added to a final volume of 12.5 ul: • 0.1 ng/ul His-AKT (Full Length), (Invitrogen, Part #P2999, Lot #641228C) • 160 uM ATP (Fluke, 02055) • 1 mM DTT (Sigma, D0632) • 1 mM MgCl2 (Sigma, M1028) • 1 uM substrate peptide (sequence FITC-AHA-GRPRTSSFAEG-NH2), synthesized by Tufts Peptide Synthesis service. • 100 mM HEPES pH 7.5 (Calbiochem, 391338) • 0.015% Brij-35 (Sigma, B4184)
as §1
The plate was read on a Caliper LC 3000 in an Off-Chip mobility shift assay format, using the following parameters for a 12-sipper chip: screening pressure −2.3 psi, upstream voltage −500, and downstream voltage −3000.
These conditions cause unphosphorylated substrate and phosphorylated product peptide to resolve as separate peaks allowing direct measurement of percentage of conversion of substrate to product. The percent conversion was plotted against concentration of inhibitor to produce a sigmoidal dose response curve, from which an IC50 was calculated.

T2 sequence (Q96GD4 whole entry, the tested form may be a part): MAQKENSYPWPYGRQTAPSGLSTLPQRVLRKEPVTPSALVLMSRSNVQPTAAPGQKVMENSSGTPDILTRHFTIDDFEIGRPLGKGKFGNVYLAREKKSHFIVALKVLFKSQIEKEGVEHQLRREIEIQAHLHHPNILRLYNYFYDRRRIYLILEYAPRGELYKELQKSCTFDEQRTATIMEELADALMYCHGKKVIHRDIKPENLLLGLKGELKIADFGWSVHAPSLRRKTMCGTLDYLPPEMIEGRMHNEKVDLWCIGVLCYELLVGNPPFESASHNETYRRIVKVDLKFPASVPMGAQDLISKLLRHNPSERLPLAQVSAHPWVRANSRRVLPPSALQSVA
T2 sequence (Q9NQS7 803-918 partner limits assumed): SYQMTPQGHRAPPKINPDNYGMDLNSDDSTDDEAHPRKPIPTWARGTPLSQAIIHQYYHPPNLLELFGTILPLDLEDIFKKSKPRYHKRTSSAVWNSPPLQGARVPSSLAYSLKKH
T1 sequence (P23443 1-421 T412E limits assumed): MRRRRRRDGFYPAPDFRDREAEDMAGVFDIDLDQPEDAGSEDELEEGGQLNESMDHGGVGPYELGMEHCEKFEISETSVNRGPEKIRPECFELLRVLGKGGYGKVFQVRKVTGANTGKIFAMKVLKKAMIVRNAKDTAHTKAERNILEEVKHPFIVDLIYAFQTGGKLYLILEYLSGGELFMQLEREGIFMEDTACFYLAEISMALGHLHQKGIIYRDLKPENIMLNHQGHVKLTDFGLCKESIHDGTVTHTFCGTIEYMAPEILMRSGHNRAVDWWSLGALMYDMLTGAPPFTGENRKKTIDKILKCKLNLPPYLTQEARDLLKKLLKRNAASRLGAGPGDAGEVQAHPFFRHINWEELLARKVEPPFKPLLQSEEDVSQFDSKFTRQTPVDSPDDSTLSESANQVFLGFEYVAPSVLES
T3 sequence (P31749 whole entry): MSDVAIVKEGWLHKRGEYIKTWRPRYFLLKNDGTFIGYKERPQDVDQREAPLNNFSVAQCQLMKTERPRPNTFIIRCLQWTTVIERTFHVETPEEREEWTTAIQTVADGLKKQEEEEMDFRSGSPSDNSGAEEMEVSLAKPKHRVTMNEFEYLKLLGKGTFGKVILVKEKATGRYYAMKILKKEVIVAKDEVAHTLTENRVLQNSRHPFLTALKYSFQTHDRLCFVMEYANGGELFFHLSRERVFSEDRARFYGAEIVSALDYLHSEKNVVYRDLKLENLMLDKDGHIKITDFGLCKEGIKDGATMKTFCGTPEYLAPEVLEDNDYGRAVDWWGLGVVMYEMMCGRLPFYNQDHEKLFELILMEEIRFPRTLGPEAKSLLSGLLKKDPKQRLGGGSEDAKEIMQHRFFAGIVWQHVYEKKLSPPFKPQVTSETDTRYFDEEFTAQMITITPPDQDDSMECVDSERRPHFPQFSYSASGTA

pIC50 (P70S6K (T412E mutant)) | pIC50 (pS6 MDA-MB-468) | pIC50 (Aurora B) | pIC50 (Akt1) | Aurora B/p70S6K inhibitory ratio (Aurora B; ratio of Aurora B to p70S6K inhibition) | SMILES
8.40 | 6.32 | 7.16 | 7.68 | – | COc1cc([C@@H](CN2CCC2)Nc2ncnc3c(C(N)=O)cccc23)ccc1F [Example 43, 4-[(S)-2-Azetidin-1-yl-1-(4-fluoro-3-methoxy-phenyl)-ethylamino]-quinazoline-8-carboxylic acid amide]
9.05 | 7.96 | 7.00 | 8.85 | – | NC(=O)c1cccc2c(N[C@H](CN3CCC3)c3ccc(Cl)c(C(F)(F)F)c3)ncnc12 [Example 5, 4-[(S)-2-Azetidin-1-yl-1-(4-chloro-3-trifluoromethylphenyl)-ethylamino]-quinazoline-8-carboxylic acid amide]
8.27 | 6.74 | 6.77 | 7.04 | – | NC(=O)c1cccc2c(N[C@H](CN3CCC3)c3c(F)cccc3F)ncnc12 [Example 16, 4-[(S)-2-Azetidin-1-yl-1-(2,6-difluorophenyl)-ethylamino]-quinazoline-8-carboxylic acid amide]
8.80 | 7.49 | 6.92 | 7.64 | – | Cc1cc([C@@H](CN2CCC2)Nc2ncnc3c(C(N)=O)cccc23)ccc1F [Example 42, 4-[(S)-2-Azetidin-1-yl-1-(4-fluoro-3-methyl-phenyl)-ethylamino]-quinazoline-8-carboxylic acid amide]
8.68 | 7.21 | 6.44 | 7.64 | – | NC(=O)c1cccc2c(N[C@H](CN3CCC3)c3ccc(F)c(F)c3F)ncnc12 [Example 19, 4-[(S)-2-Azetidin-1-yl-1-(2,3,4-trifluorophenyl)-ethylamino]-quinazoline-8-carboxylic acid amide]
9.00 | 7.44 | 7.37 | 7.68 | – | NC(=O)c1cccc2c(N[C@H](CN3CCC3)c3ccc(Cl)cc3)ncnc12 [Example 10, 4-[(S)-2-Azetidin-1-yl-1-(4-chlorophenyl)-ethylamino]-quinazoline-8-carboxylic acid amide]
8.25 | 7.15 | 7.35 | 7.66 | 28 | NC(=O)c1cccc2c(N[C@H](CN3CCC3)c3cccc(F)c3)ncnc12 [Example 1, 4-[(S)-2-Azetidin-1-yl-1-(3-fluorophenyl)-ethylamino]-quinazoline-8-carboxylic acid amide]
8.51 | 6.31 | 6.59 | 6.43 | – | NC(=O)c1cccc2c(N[C@H](CN3CCC3)c3cc(F)ccc3Cl)ncnc12 [Example 25, 4-[(S)-2-Azetidin-1-yl-1-(2-chloro-5-fluoro-phenyl)-ethylamino]-quinazoline-8-carboxylic acid amide]
8.80 | 7.41 | 7.19 | 7.32 | – | NC(=O)c1cccc2c(N[C@H](CN3CCC3)c3ccc(Br)cc3)ncnc12 [Example 8, 4-[(S)-2-Azetidin-1-yl-1-(4-bromophenyl)-ethylamino]-quinazoline-8-carboxylic acid amide]
8.89 | 8.89 | 7.24 | 7.92 | – | NC(=O)c1cccc2c(N[C@H](CN3CCC3)c3ccc(F)c(Cl)c3)ncnc12 [Example 7, 4-[(S)-2-Azetidin-1-yl-1-(3-chloro-4-fluorophenyl)-ethylamino]-quinazoline-8-carboxylic acid amide]
8.11 | 6.99 | 7.39 | 7.64 | – | NC(=O)c1cccc2c(N[C@H](CN3CCC3)c3ccc(F)cc3)ncnc12 [Example 3, 4-[(S)-2-Azetidin-1-yl-1-(4-fluorophenyl)-ethylamino]-quinazoline-8-carboxylic acid amide]
8.52 | 6.41 | 6.92 | 7.96 | – | CC1CCN1C[C@@H](Nc1ncnc2c(C(N)=O)cccc12)c1ccc(F)c(C(F)(F)F)c1 (stereo partly drawn) [Example 48, 4-[(S)-1-(4-Fluoro-3-trifluoromethyl-phenyl)-2-(2-methyl-azetidin-1-yl)-ethylamino]-quinazoline-8-carboxylic acid amide]
8.55 | 6.89 | 6.70 | 7.60 | – | NC(=O)c1cccc2c(N[C@H](CN3CCC3)c3cc(F)c(F)c(F)c3)ncnc12 [Example 37, 4-[(S)-2-Azetidin-1-yl-1-(3,4,5-trifluorophenyl)-ethylamino]-quinazoline-8-carboxylic acid amide]
8.64 | 7.01 | 6.57 | 8.04 | – | NC(=O)c1cccc2c(N[C@H](CN3CCC3)c3cc(F)cc(C(F)(F)F)c3)ncnc12 [Example 6, 4-[(S)-2-Azetidin-1-yl-1-(3-fluoro-5-trifluoromethylphenyl)-ethylamino]-quinazoline-8-carboxylic acid amide]
8.22 | 6.84 | 6.70 | 7.08 | – | NC(=O)c1cccc2c(N[C@H](CN3CCC3)c3ccc(F)cc3F)ncnc12 [Example 15, 4-[(S)-2-Azetidin-1-yl-1-(2,4-difluorophenyl)-ethylamino]-quinazoline-8-carboxylic acid amide]
